One experiment has as its system class 1 HDACs 1 and 2. Particulars: data from Bradner et al., FIG. 6; cited from earlier work.
For another experiment, the system named is SKOV3 TSPYL5 KD cells. Nature of the experiment: Cell growth assay (Cell Titer-Glo) in SKOV3 cells expressing TSPYL5 shRNA. Type of experiment: cell-based. How it is done: (§1) Sensitivity of cells to HDAC inhibitor treatment is expressed as their S-value (S), which is a dimensionless compound value generated by adding the values of IC50 and the growth rate (GR) at the maximum drug concentration used to determine the IC50. The term (maximum drug concentration/200) is added in the equation below to achieve equal weighting of the S-value for IC50 and GR. S=IC50+(GR+100)×(maximum drug concentration/200) See FIG. 1 for an example of an S value calculation and explanation of GR.
(§2) To determine cell growth IC50 and GR at a given drug concentration, growth was plotted against drug concentration as a percentage of the number of cells present at the beginning of the experiment. Cells were plated in 96-well plates and allowed to attach and grow overnight. The following day, the cells were treated with serial dilutions of test compound. The viable cells were measured at day 0 (24 hours after plating) and day 3 (72 hours after adding the tested compound) using Cell Titer-Glo. Growth was calculated compared to day 0.
The plot generated two key data, the IC50 value and the % growth at the highest tested compound concentration (GR). […]
Effect of knocking down TSPYL5 expression using shRNA on IC50, GR and S values of romidepsin treatment. […] Knockdown of TSPYL5 in SKOV3 TSPYL5 KD cells was verified using western blot and quantitative PCR. […]
A general note: Cellular ATP, detected with luciferase, serves as a proxy for viable cell number.

For another experiment, the system named is SKOV3 NS cells. The experiment in a line: Cell growth assay (Cell Titer-Glo) in SKOV3 cells expressing non-silencing control shRNA. The experiment is classed as cell-based. The conditions noted are these: for IC50: romidepsin, 5 independent experiments. Here is the method:
as §1, §2
(§3) The plot generated two key data, the IC50 value and the % growth at the highest tested compound concentration (GR). The highest concentration tested for romidepsin was 1000 nM.
Effect of knocking down TSPYL5 expression using shRNA on IC50, GR and S values of romidepsin treatment. SKOV3 cells expressing either TSPYL5 shRNA (SKOV3 TSPYL5 KD) or non-silencing control shRNA (SKOV3 NS) were created using lentiviral infection. Knockdown of TSPYL5 in SKOV3 TSPYL5 KD cells was verified using western blot and quantitative PCR. Expression of TSPYL5 in these cells was reduced by 70%. After selection of stable pools with puromycin, cells were treated with varying concentrations of romidepsin for determination of IC50, GR and S value. Data from 5 independent experiments are shown. SKOV3 TSPYL5 KD cells have lower IC50s, show […] growth rate (GR) and have thus smaller S values than SKOV3 NS cells, meaning these cells are more sensitive to treatment with romidepsin. The data are plotted in FIG. 5. Differences between the 2 lines are significant (paired t test).

A further experiment deals with cell line panel. Nature of the experiment: Cell line panel viability screen (Cell Titer-Glo), S-value. Type of experiment: cell-based. How it is done:
as §1, §2, §3
The IC50s in these experiments could range from 0-1000 nM. […] Growth at the highest drug concentration tested ranged from −100 to +100. For the calculation of the S-Value, 100 was added to the numerical value of the observed growth, so that only positive numbers were generated (after adding 100, the range was from 0-200). Since IC50s and growth at the maximum drug concentration tested have different numerical ranges (0-1000 as compared to 0-200), the value for growth inhibition was multiplied by the maximum drug concentration used/200. This means that in the example given, both IC50 and GR could contribute values of 0-1000 to the S-value.
A cell line panel viability screen was used to compare the effects of a 6 hour and 72 hour treatment with romidepsin across a wide variety of cell lines. […] The S-Value was computed for the 6 h treatment and ranged from 5 for the most sensitive cell lines to 2000 for the most resistant cell lines. To identify genes whose expression correlated with sensitivity to HDAC inhibitor treatment, we applied two way ANOVA to select genes that were correlated with sensitivity. […] The most overexpressed gene in the resistant subgroup, ABCB1 (Res/Sen=29.6) is known to cause resistance to romidepsin treatment. This approach identified novel genes that correlated with resistance and/or sensitivity to the HDAC inhibitors but not tissue origin.
A cell line panel viability screen was used to compare the effects of romidepsin across a wide variety of cell lines and is shown in FIG. 3.

Experiment [1] has as its system primary human tumors propagated in mice. The experiment in a line: Clonogenic two-layer soft agar assay of primary patient tumor explants. Type of experiment: cell-based. Particulars: IC50 of clonogenic assay against TSPYL5 expression, FIG. 4. How it is done: Primary human tumors were propagated in mice. Tumors were dissociated and their sensitivity to romidepsin was tested using a clonogenic assay.
The clonogenic assay was performed in a 24-well format according to a modified two-layer soft agar assay introduced by Hamburger & Salmon (Hamburger A W, Salmon S E. Primary bioassay of human tumor stem cells. Science 197:461 (1977)). Briefly, cells were seeded on a bottom layer of growth medium supplemented with 0.4% (w/v) agar. Cells were added in 0.2 ml of the same medium supplemented with 0.4% (w/v) agar. Test compounds were applied diluted in culture medium. Cultures were incubated at 37° C. and 7.5% CO2 in a humidified atmosphere for up to 21 days. After 4-21 days, colonies were counted and drug effect was expressed as percent colony formations compared to untreated controls.

A further experiment concerns HDF TSPYL5 KD cells. The experiment in a line: Cell growth assay in human dermal fibroblasts with TSPYL5 knockdown. The conditions noted are these: HDF TSPYL5 KD versus HDF NS, FIG. 8. The experiment is classed as cell-based. The source says:
FIG. 8 depicts the effect of knockdown of TSPYL5 expression on sensitivity of HDF cells to romidepsin using shRNA, as measured by the effect of romidepsin treatment on IC50 (Panel A), growth rate (GR) (Panel B) and S value (Panel C). Sensitivity of TSPYL5 knockdown cells to romidepsin is increased as measured by S value and growth rate. HDF cells expressing either TSPYL5 shRNA (HDF TSPYL5 KD) or non-silencing control shRNA (HDF NS) were created using lentiviral infection. Knockdown of TSPYL5 in HDF TSPYL5 KD cells was verified using western blot and quantitative PCR. Expression of TSPYL5 in these cells was reduced by >70%. After selection of stable pools with puromycen, cells were treated with varying concentrations of romidepsin for determination of IC50, GR and S value. The data shown are means and standard deviations from 8 independent experiments. Panel A: Romidepsin IC50s for HDF TSPYL5 KD cells and HDF NS cells. Panel B: Romidepsin GR for HDF TSPYL5 KD cells and HDF NS cells. […]
To determine cell growth IC50 and GR at a given drug concentration, growth was plotted against drug concentration as a percentage of the number of cells present at the beginning of the experiment. […] The viable cells were measured at day 0 (24 hours after plating) and day 3 (72 hours after adding the tested compound) using Cell Titer-Glo. Growth was calculated compared to day 0.

Another experiment has as its target T1, class 2 HDAC 6 (Homo sapiens, UniProt Q9UBN7).
T1 sequence (Q9UBN7 1-1215): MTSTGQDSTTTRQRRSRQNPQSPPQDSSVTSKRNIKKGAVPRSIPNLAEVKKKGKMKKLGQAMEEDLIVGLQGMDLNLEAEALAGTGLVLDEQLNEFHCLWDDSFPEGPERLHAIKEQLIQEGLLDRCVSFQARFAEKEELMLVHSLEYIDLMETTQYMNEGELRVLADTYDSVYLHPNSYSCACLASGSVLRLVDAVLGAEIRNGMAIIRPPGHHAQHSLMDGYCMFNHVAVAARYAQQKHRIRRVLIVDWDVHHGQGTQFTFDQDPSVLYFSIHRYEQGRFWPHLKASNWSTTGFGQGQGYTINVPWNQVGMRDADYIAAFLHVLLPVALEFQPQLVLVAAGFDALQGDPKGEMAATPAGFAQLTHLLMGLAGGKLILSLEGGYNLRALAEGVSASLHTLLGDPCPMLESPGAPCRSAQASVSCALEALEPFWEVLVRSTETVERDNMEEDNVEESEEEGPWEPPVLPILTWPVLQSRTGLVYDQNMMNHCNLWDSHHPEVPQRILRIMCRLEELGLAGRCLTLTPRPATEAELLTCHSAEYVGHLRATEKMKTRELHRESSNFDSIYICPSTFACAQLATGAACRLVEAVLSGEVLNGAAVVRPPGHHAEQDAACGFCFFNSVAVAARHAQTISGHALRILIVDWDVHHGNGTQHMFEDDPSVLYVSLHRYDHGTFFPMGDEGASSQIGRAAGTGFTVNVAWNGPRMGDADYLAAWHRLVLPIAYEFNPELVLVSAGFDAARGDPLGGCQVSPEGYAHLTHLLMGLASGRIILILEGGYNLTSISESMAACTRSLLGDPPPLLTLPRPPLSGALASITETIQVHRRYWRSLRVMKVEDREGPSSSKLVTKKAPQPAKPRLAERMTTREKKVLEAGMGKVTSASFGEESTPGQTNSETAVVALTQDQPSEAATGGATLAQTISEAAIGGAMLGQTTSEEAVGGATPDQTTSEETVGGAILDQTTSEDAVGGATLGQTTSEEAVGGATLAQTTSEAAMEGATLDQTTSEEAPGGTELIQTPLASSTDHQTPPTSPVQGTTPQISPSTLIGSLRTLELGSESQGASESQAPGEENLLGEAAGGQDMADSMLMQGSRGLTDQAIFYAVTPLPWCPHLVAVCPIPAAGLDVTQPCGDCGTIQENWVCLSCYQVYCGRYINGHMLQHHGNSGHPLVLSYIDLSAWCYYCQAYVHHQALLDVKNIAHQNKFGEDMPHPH
Particulars: data from Bradner et al., FIG. 6; cited from earlier work.

SMILES strings stand for the structures. Values joined by “and” are separate entries in the source; they are usually repeats but may differ in a detail not shown here. Equal entries are not always repeated.

This is an account of results in patent US9134325B2, “Resistance biomarkers for HDAC inhibitors” (Celgene Corporation, priority 2012, dated 2015).

Take `Nc1ccccc1NC(=O)c1ccc(CNC(=O)OCc2cccnc2)cc1` [entinostat]: the “Inhibition of class 1 HDACs 1 and 2” value in the experiment with class 1 HDACs 1 and 2 is “inhibit”.
One may read the IC50 as the concentration that inhibits the measured activity by half. As for `C/C=C1\NC(=O)[C@H]2CSSCC/C=C/[C@H](CC(=O)N[C@H](C(C)C)C(=O)N2)OC(=O)[C@H](C(C)C)NC1=O` [romidepsin], the S value in the experiment on SKOV3 TSPYL5 KD cells (S=IC50+(GR+100)×(maximum drug concentration/200)) is 156 and 115 and 105 and 112 and 135; in the experiment on SKOV3 NS cells (SKOV3 NS, S=IC50+(GR+100)×(maximum drug concentration/200)) it was 291 and 253 and 256 and 230 and 243. Also, the “GR (growth at the highest tested concentration)” value in the experiment with SKOV3 TSPYL5 KD cells (highest romidepsin concentration 1000 nM, relative to day 0) was −92.5% and −88.6% and −93.2% and −86.1% and −84.3%. The IC50 in the experiment with SKOV3 NS cells (Homo sapiens, SK-OV-3, SKOV3 NS (non-silencing control shRNA)) was 0.141 µM; with SKOV3 NS cells (SKOV3 NS (non-silencing control shRNA)) it was 0.136 µM and 0.139 µM and 0.098 µM and 0.162 µM; in the experiment on cell line panel (read-out: IC50 of cell growth) it was 0.0973 µM. Further, in the experiment with cell line panel (6 h drug treatment, S value, FIG. 2B), the “Sensitivity by tissue of origin” value is recorded as “blood cell lines show the greatest sensitivity”. Further, the “S-value across cell lines” value in the experiment with cell line panel (6 h drug treatment, most sensitive to most resistant cell lines) is on record as 4-2000. In addition, the “Sensitivity of cell lines” value with cell line panel (72 hour treatment) was “majority of the tested cell lines showed sensitivity”. Moreover, the “Sensitivity of cell lines expressing high levels of TSPYL5” value in the experiment on cell line panel (S value against TSPYL5 gene expression, FIG. 3) is on record as “no cell line expressing high levels of TSPYL5 was sensitive”. The “Sensitivity of primary tumors with high TSPYL5 expression” value in experiment [1] was “resistant”. Also, the “Effect of TSPYL5 knockdown on sensitivity of HDF cells” value in the experiment on HDF TSPYL5 KD cells is given as “increases sensitivity”. Besides, in the experiment on class 1 HDACs 1 and 2, the “Inhibition of class 1 HDACs 1 and 2” value is reported as “inhibit”.
For `O=C(CCCCCCC(=O)Nc1ccccc1)NO` [vorinostat], the “Inhibition of class 2 HDAC 6” value on class 2 HDAC 6 is listed as “inhibit”.
